Like-named read-outs stand apart in the source and are kept apart here. Values belong to the compound of their own block, whether it stands above or below them.
How the values were obtained:
MCF-7 = test: MTT cytotoxicity assay, MCF-7; type: cell-based
Procedure: (§2) The cytotoxicity of C1–C3 was determined using an MTT (3-(4,5-dimethylthiazol-2-yl)-2,5-diphenyltetrazolium bromide) assay on various cancer cells.

Hela = test: MTT cytotoxicity assay, Hela; type: cell-based
Procedure: as §2

[1] = test system: cisplatin-resistant lung cancer (A549cisR) cells; test: MTT cytotoxicity assay, A549cisR; type: cell-based
Procedure: as §2

WI-38 = test: MTT cytotoxicity assay, WI-38; type: cell-based
Procedure: as §2

A549 cells [2] = test: MTT cytotoxicity assay, A549
Procedure: as §2

[3] = Solubility in saline (0.9% sodium chloride solution); type: physicochemical
A549 cells [4] = test: Wound-healing assay (cell migration); type: cell-based; details: 2 μM and 4 μM, 24 h
Procedure: (§1) Cell migration is crucial to cancer development and metastasis; metastasis is a major cause of many cancer-related deaths. The migration is very usually assessed by the application of the wound-healing assay, which involves the creation of an artificial gap in a cancer cell monolayer, followed by observation of the area covered with migrating cells. Therefore, the inhibiting effect of C1 on cancer cell migration was evaluated using a wound-healing assay. […] In addition, the effect of C1 on A549 cell invasion was investigated using a transwell assay.
To evaluate the impact of C1 on cell migration, a wound-healing assay was carried out. A549 cells were seeded into 6-well plates and incubated overnight at 37 °C. C1 was dissolved in saline. Subsequently, scratch wounds were performed in the monolayer of cells using sterile toothpicks, and then the cells were treated with the Cu complex (2 μM and 4 μM). The cells were captured using an inverted microscope at 0 and 24 h.

A549 cells [5] = test: Transwell invasion assay; type: cell-based; details: 24 h
Procedure: as §1
The effect of C1 on tumor cell invasiveness was assessed by transwell assay. In brief, the transwell chamber was pre-coated with 70 μL diluted matrigel for 8 h at 37 °C. A549 cells were seeded to the upper chamber, and then C1 was added to the chamber. After 24 h of incubation, the chambers were washed, stained with 0.5% crystal violet for 20 min, and captured using an inverted microscope.

A549 cells [6] = test: Mitochondrial membrane potential (JC-1, flow cytometry); type: cell-based; details: C1 8 μM, 24 h
Procedure: Mitochondria play a key role in death signals through intrinsic and extrinsic apoptosis. Therefore, after exposure to C1, A549 cells were stained with a JC-1 probe to evaluate the mitochondrial membrane potential (ΔΨm) using flow cytometry.
Exponentially growing A549 cells were cultured in 6-well plates. Subsequently, C1 (4 μM and 8 μM) was exposed to the cells for 24 h. The cells were stained with JC-1 probe and analyzed by flow cytometry.

A549 cells [7] = test: Cell apoptosis analysis (Annexin V/PI, flow cytometry); type: cell-based; details: 24 h, control 4.0%
Procedure: Then, the effect of C1 on A549 cells apoptosis was stained with Annexin V/PI and analyzed using flow cytometry.
The A549 cells were placed in 6-well plates and incubated overnight. The cells were treated with C1 (4 μM and 8 μM) and incubated for 24 h. Subsequently, the cells were harvested and stained with Annexin V/PI for 20 min. The samples were detected by flow cytometry.

CT-DNA = test: EB-DNA fluorescence-quenching assay; type: binding; details: C1 0−16 μM, 8 μM EB, 10 μM CT-DNA, pH 7.2 Tris–HCl
Procedure: Competitive studies with ethidium bromide (EB) have been widely used in fluorescence-quenching assays to evaluate the interaction between DNA and small molecules. Therefore, to further explore the binding property of C1 and DNA, fluorescence quenching was carried out to explore the interaction mode.
The fluorescence spectrum was performed to measure the interaction mode of C1 (0−16 μM) and EB-DNA (8 μM ethidium bromide added into 10 μM CT-DNA) in a pH 7.2 Tris–HCl buffer. The EB-DNA was excited at 510 nm, and for the emission spectra, the emission range was set to 530–750 nm. C1 was gradually added to the EB-DNA solution.

A549 cells [8] = test: Cell cycle analysis (PI, flow cytometry); type: cell-based; details: 48 h
Procedure: The influence of metal compounds on cell cycle arrest contributes to their anticancer activity. To determine the effect of C1 on the cell cycle, the distribution of the cell cycle of C1-treated A549 cells was detected using flow cytometry.
The A549 cells were seeded into 10 cm dishes and incubated overnight. Subsequently, the cells were treated with C1 (4 μM and 8 μM). After 48 h, the cells were collected, fixed with 75% ethanol overnight, stained with PI for 20 min, and measured by flow cytometry.

A549 cells [9] = test: β-Galactosidase staining assay (senescence); type: cell-based; details: 24 h treatment
Procedure: Senescence is a permanent cellular stage involving cell cycle arrest, which is a potential strategy against cancer. We measured the impact of C1 on cell senescence in A549 cells using a β-galactosidase staining assay. The senescent cells were dyed blue by β-galactosidase.
A549 cells were cultured in 6-well plates and incubated overnight. After C1 treatment for 24 h, the cells were fixed. Then, 20 min later, the cells were washed and stained with β-galactosidase for 48 h. The stained cells were observed and captured using an inverted microscope.

A549 cells [10] = test: Measurement of cellular ROS (H2DCF-DA, flow cytometry); type: cell-based; details: 4 μM and 8 μM, 24 h, vs control
Procedure: A change in the mitochondrial membrane potential results in mitochondrial dysfunction, which can induce reactive oxygen species (ROS) production. Based on the above information, we detected the ROS level in A549 cells using flow cytometry.
The ROS in A549 cells was analyzed by flow cytometry. After pretreatment with C1 (4 μM and 8 μM) for 24 h, the A549 cells were collected and stained with H2DCF-DA. After 20 min, the samples were measured using a flow cytometer.

A549 cells [11] = test: Comet assay (DNA damage); type: cell-based
Procedure: Excessive intracellular ROS can cause DNA damage and cell death. Next, a comet assay was performed to determine whether C1 caused DNA damage. Undamaged DNA cannot migrate, and fluorescence is only confined to the nucleus. In DNA-damaged cells, negatively charged DNA fragments are then released from the nucleus and migrate towards the anode. There was no comet-like cell observed in the control group. In comparison, C1-treated cells with longer tails (white arrows) were observed, and a higher percentage, indicating the existence of severe DNA fragmentation (Figure 7B).
The A549 cells were seed into 6-well plates and treated with C1. A mixture of 10 μL cell suspension and 70 μL low-melting-point agarose (1%) were placed on a glass microscope slide (pre-coated with 1% normal-melting-point agarose) and covered with coverslips. The cells were separate by gel electrophoresis, stained with PI, and captured using an inverted fluorescence microscope.

A549 tumor = test: In vivo antitumor experiment in mice bearing A549 tumors; parameters: species or system BALB/C nude mice; details: for Tumor growth inhibition rate: two weeks, mice bearing A549 tumors
Procedure: Based on these promising biological properties, the in vivo therapeutic efficacy of C1 was further investigated in mice bearing A549 tumors. […] Generally, body weight change is considered a key indicator of systemic toxicity.
In addition, TUNEL (terminal deoxynucleotidyl transferase dUTP nick end labeling) staining of tumor tissue sections was performed to examine the effect of C1 on apoptosis in vivo. […] Histological analyses were carried out using H&E (hematoxylin and eosin) staining to evaluate the toxicity of C1 for the major organ.
BALB/C nude mice (6–8 weeks old, 18–22 g) were purchased from Hunan SJA Laboratory Animal Co., Ltd. An amount of 200 μL of A549 cells (containing 2 × 10^6 cells) were subcutaneously injected into the left flank of the mice. The mice were randomly divided into 3 groups when the average tumor size reached 100 mm^3. Then, the mice were treated with saline and C1 (2.5 and 5 mg/kg) for two weeks. C1 was dissolved in saline. During the treatment, the tumor volume and body weight of mice were measured every two days. The major organs (heart, kidney, and liver) and tumor tissues were harvested and sliced for H&E staining and TUNEL staining, respectively.

Compound: 5-chloro-2-N-(2-quinolylmethylene)aminophenoxide-Zn(II)-chloride/pyridine [C2]
- IC50 (MCF-7): 23.6 ± 0.98 µM
- IC50 (Hela): 22.8 ± 0.8 µM
- IC50 [1]: 29.3 ± 0.85 µM
- IC50 (WI-38): 34 ± 1.06 µM
- IC50 (A549 cells [2]; read-out: IC50 A549, MTT assay): 18.3 ± 0.52 µM

- Solubility in saline [3]: ≥ 1.9 mg/mL
Compound: [Cl][Cu][O]c1cc(Cl)ccc1N=Cc1ccc2ccccc2n1 [C1, 5-chloro-2-N-(2-quinolylmethylene)aminophenoxide-Cu(II)-chloride]
- IC50 (MCF-7): 5.3 ± 0.35 µM
- IC50 (Hela): 6.31 ± 0.32 µM
- IC50 [1]: 6.79 ± 0.38 µM
- IC50 (WI-38): 10.2 ± 0.43 µM
- Effect on migration of A549 cells (A549 cells [4]): strongly inhibited the migration ability of A549 cells
- Effect on invasion of A549 cells (A549 cells [5]): could inhibit the invasion abilities of A549 cells
- ΔΨm of A549 cells reduced by (JC-1) (A549 cells [6]): 23.7%
- Population of apoptotic cells (A549 cells [7]; C1 4 μM): 15.0%
- Population of apoptotic cells (A549 cells [7]; C1 8 μM): 23.8%
- DNA binding mode (EB displacement) (CT-DNA): binds to DNA in an intercalative binding mode
- Percentage of cells in G0/G1 phase (A549 cells [8]; C1 4 μM): 48.85%
- Percentage of cells in G2/M phase (A549 cells [8]; C1 4 μM): 7.98%
- Percentage of cells in S phase (A549 cells [8]; C1 4 μM): 43.17%
- Percentage of cells in G0/G1 phase (A549 cells [8]; C1 8 μM): 54.45%
- Percentage of cells in G2/M phase (A549 cells [8]; C1 8 μM): 9.96%
- Percentage of cells in S phase (A549 cells [8]; C1 8 μM): 35.59%
- Cell senescence (β-galactosidase staining) (A549 cells [9]): can induce A549 cell senescence
- Intracellular ROS level (A549 cells [10]): significantly increased
- DNA damage (comet assay) (A549 cells [11]): induces DNA damage
- Tumor growth inhibition rate (A549 tumor; C1 2.5 mg/kg): 46.3%
- Tumor growth inhibition rate (A549 tumor; C1 5 mg/kg): 63.5%
- Body weight change (A549 tumor; C1 2.5 and 5 mg/kg, vs control group): no apparent weight loss
- Histology of heart, liver, and kidney (H&E staining) (A549 tumor; after treatment with C1): no pathological alterations or other abnormalities
- Apoptosis in tumor tissue (TUNEL staining) (A549 tumor; tumor tissue sections): notable cell apoptosis
- IC50 (A549 cells [2]; read-out: IC50 A549, MTT assay): 3.93 ± 0.28 µM

- Solubility in saline [3]: ≥ 0.8 mg/mL
Compound: O.O.[Cl][Mn][O]c1cc(Cl)ccc1N=Cc1ccc2ccccc2n1 [C3, 5-chloro-2-N-(2-quinolylmethylene)aminophenoxide-Mn(II)-chloride/dihydrate]
- IC50 (MCF-7): > 40 µM
- IC50 (Hela): > 40 µM
- IC50 [1]: > 40 µM
- IC50 (WI-38): > 40 µM
- IC50 (A549 cells [2]; read-out: IC50 A549, MTT assay): 33.6 ± 0.98 µM

Compound: N.N.[Cl][Pt][Cl] [Cisplatin, reference compound]
- IC50 (MCF-7): 14.5 ± 0.48 µM
- IC50 (Hela): 15.3 ± 0.51 µM
- IC50 [1]: > 40 µM
- IC50 (WI-38): 9.61 ± 0.58 µM
- IC50 (A549 cells [2]; read-out: IC50 A549, MTT assay): 12.5 ± 0.45 µM

Compound: Oc1cc(Cl)ccc1/N=C/c1ccc2ccccc2n1 [L, 5-chloro-2-N-(2-quinolylmethylene) aminophenol]
- IC50 (MCF-7; Homo sapiens, MCF7): > 40 µM
- IC50 (Hela; Homo sapiens, HeLa): > 40 µM
- IC50 [1]: > 40 µM
- IC50 (WI-38; Homo sapiens, WI-38): > 40 µM
- IC50 (A549 cells [2]; Homo sapiens, A549, read-out: IC50 A549): > 40 µM

Source: publication PMC10300901, “Anticancer Activity and Mode of Action of Cu(II), Zn(II), and Mn(II) Complexes with 5-Chloro-2-N-(2-quinolylmethylene)aminophenol” (Molecules, 2023)
